PMC9321810, “Antiviral Cyclopropane Acids from Deep-Sea-Derived Fungus Aspergillus sydowii” (Marine Drugs, 2022)
Read-outs that look alike come from different tables or passages of the source.

How the values were obtained:
[1] = test system: influenza virus A/WSN/33 (H1N1); assay: cytopathic effect (CPE) reduction assay, anti-influenza virus; type: cell-based, influenza A/WSN/33 (H1N1)
in vitro = details: dog
[2] = H1N1|WSN, MDCK, 40 h, read-out: IC50, inhibitory activity against influenza virus A/WSN/33 (H1N1), infected MDCK cells, MOI = 0.1, 40 h incubation, CellTiter-Glo readout

Compound	IC50 [1, 2] [µM]	CC50 at 40 h (in vitro) [µM]	IC50 ([1]; read-out: IC50, inhibitory activity against influenza virus A/WSN/33 (H1N1), infected MDCK cells, MOI = 0.1, 40 h incubation, CellTiter-Glo readout) [µM]
CCOC(=O)C1=C[C@@H](OC(CC)CC)[C@H](NC(C)=O)[C@@H](N)C1 [OSV, oseltamivir, reference compound]	18.1 ± 1.2	> 100	–
CC(=O)CCC1C(C)C1(C)C(=O)O (centres unmarked) [Compound 3, sydocyclopropane C]	77.2 ± 0.5	> 100	–
COC(=O)C(O)CC(=O)C1(C)C(C)C1CCC(C)=O (centres unmarked) [Compound 1, sydocyclopropane A]	26.7 ± 0.9	> 100	–
CC(=O)CCC1C(C)C1(C)C(=O)O (centres unmarked) [Compound 4, sydocyclopropane D]	–	–	66.4 ± 1.7
CC(=O)C1(C)C(C)C1CC(=O)O (centres unmarked) [Compound 2, Sydocyclopropane B]	29.5 ± 1.4	> 100	–
CC(=O)C=CC1C(C)C1(C)C(C)=O (centres unmarked) [Compound 5, hamavellone B]	35.8 ± 3.2	> 100	–
